Experimental data from patent publication US11446238B2, “Injectable dendrimer hydrogel nanoparticles” (Wayne State University, priority 2010, dated 2022).

System: Red blood cell (RBC)
Assay: Red blood cell lysis (hemolysis)
Settings: 1% Triton X-100, positive control

Triton X-100 gave a hemolysis of 100%.
